Experiment: In vitro skin permeation (flux), modified Franz diffusion cells
Assay type: in vitro ADME, human
Conditions: as permeation enhancer, compared with other enhancers such as lauryl lactate
Experimental: In vitro skin permeation studies were conducted using modified Franz diffusion cells to determine the delivery of estrogens and progestins from various drug polymer matrices. The release liner was peeled off of the drug matrix layer. The drug matrix layer was then gently pressed onto the stratum corneum of heat separated epidermis from human cadaver skin. This skin membrane with the backing and drug matrix affixed thereto was then mounted between the two half-cells and fastened with a clamp. The receiver compartment was filled with 1% hydroxylpropylcyclodextrin in normal saline solution with 0.01% sodium azide. The temperature was maintained at 32° C. Samples were taken at preset intervals and assayed by HPLC. The flux was calculated from the slope of the cumulative amounts of the drug in the receiver compartment versus time.

## CC(O)C(=O)O (stereo not shown) [lactic acid]
  enhancing the transdermal flux of norelgestromin: particularly effective
